The results in this text go back to ChEMBL document CHEMBL1926646 (Bioorg Med Chem, 2011).

A word on the Tmax: it is the time at which the peak concentration occurs. What is called AUC is the area under the concentration-time curve, a measure of exposure. One may read the bioavailability as dose-corrected exposure relative to a reference, in per cent. Read a high bioavailability as much systemic uptake. What is called clearance is a measure of how efficiently the substance is removed, as volume per time. What is called Vdss is a proportionality between amount in the body and measured concentration, not a real space. Higher therefore signals wide distribution into tissue. Broadly, the inhibition in vivo is the share of the control response that was lost under treatment. One may read the IC50 as the concentration needed to halve the response being measured.

Series [1] in a line: Drug level in Sprague-Dawley rat plasma at 3 mg/kg at Tmax. It is filed as ADME, organism-based. Also noted: dose 3 mg/kg. The following applies: read-out: Drug uptake.
A short description of series [2]: Cmax in Sprague-Dawley rat at 10 mg/kg, po. The following applies: in vivo. The arrangement: dose 10 mg/kg, route oral. Type of series: ADME, organism-based.
The nature of series [3]: Cmax in Sprague-Dawley rat at 3 mg/kg, po. It is filed as ADME, organism-based. The arrangement: dose 3 mg/kg, route oral. The following applies: in vivo.
The nature of series [4]: Tmax in Sprague-Dawley rat at 10 mg/kg, po. Type of series: ADME, organism-based. Also noted: dose 10 mg/kg, route oral. The following applies: in vivo.
A short description of series [5]: Tmax in Sprague-Dawley rat at 3 mg/kg, po. It is filed as ADME, organism-based. Also noted: dose 3 mg/kg, route oral. The following applies: in vivo.
Series [6] in a line: Terminal half life in Sprague-Dawley rat at 10 mg/kg, po. The arrangement: dose 10 mg/kg, route oral. Conditions: in vivo, read-out: beta t1/2 (converted). It is filed as ADME, organism-based.
For series [7], the system named is Rattus norvegicus. The experiment in a line: AUC in Sprague-Dawley rat at 10 mg/kg, po. Conditions: in vivo. Also noted: dose 10 mg/kg, route oral. It is filed as ADME, organism-based, Plasma.
The nature of series [8]: Oral bioavailability in Sprague-Dawley rat at 10 mg/kg. It is filed as ADME, organism-based. The following applies: in vivo.
Series [9] is described as follows: Total clearance in Beagle dog at 0.2 mg/kg, iv. Type of series: ADME, organism-based, Canis lupus familiaris. The arrangement: dose 0.2 mg/kg, route intravenous. Conditions: in vivo.
In series [10] the test system is Canis familiaris. Briefly: Volume of distribution at steady state in Beagle dog at 0.2 mg/kg, iv. It is filed as ADME, organism-based, Canis lupus familiaris. The following applies: in vivo. Also noted: dose 0.2 mg/kg, route intravenous.
Series [11] can be described thus: Cmax in Beagle dog at 0.5 mg/kg, po. Type of series: ADME, organism-based, Canis lupus familiaris. The arrangement: dose 0.5 mg/kg, route oral. The following applies: in vivo.
Series [12] in a line: Tmax in Beagle dog at 0.5 mg/kg, po. Type of series: ADME, organism-based, Canis lupus familiaris. The arrangement: dose 0.5 mg/kg, route oral. Conditions: in vivo.
A short description of series [13]: Terminal half life in Beagle dog at 0.5 mg/kg, po. The following applies: in vivo, read-out: beta t1/2 (converted). It is filed as ADME, organism-based, Canis lupus familiaris. Also noted: dose 0.5 mg/kg, route oral.
Series [14] concerns Canis familiaris. The experiment in a line: AUC in Beagle dog at 0.5 mg/kg, po. It is filed as ADME, organism-based, Canis lupus familiaris, Plasma. Also noted: dose 0.5 mg/kg, route oral. Conditions: in vivo.
Series [15] can be described thus: Oral bioavailability in Beagle dog at 0.5 mg/kg. It is filed as ADME, organism-based, Canis lupus familiaris. Conditions: in vivo.
Series [16] is described as follows: Total clearance in Sprague-Dawley rat at 3 mg/kg, iv. Type of series: ADME, organism-based. Conditions: in vivo. Also noted: dose 3 mg/kg, route intravenous.
Series [17] has as its system Rattus norvegicus. Briefly: Volume of distribution at steady state in Sprague-Dawley rat at 3 mg/kg, iv. It is filed as ADME, organism-based. Also noted: dose 3 mg/kg, route intravenous. Conditions: in vivo.
The nature of series [18]: Plasma protein binding in rat at 20 ng/ml after 0.5 hrs by LC-MS/MS analysis. It is filed as ADME, cell-free. Conditions: read-out: PPB (converted).
The nature of series [19]: Plasma protein binding in rat at 2000 ng/ml after 0.5 hrs by LC-MS/MS analysis. Type of series: ADME, cell-free. The following applies: read-out: PPB (converted).
Series [20] is described as follows: Plasma protein binding in dog at 20 ng/ml after 0.5 hrs by LC-MS/MS analysis. It is filed as ADME, cell-free, Canis lupus familiaris. Conditions: read-out: PPB (converted).
Series [21] in a line: Plasma protein binding in dog at 2000 ng/ml after 0.5 hrs by LC-MS/MS analysis. It is filed as ADME, cell-free, Canis lupus familiaris. Conditions: read-out: PPB (converted).
Series [22] in a line: Plasma protein binding in human at 20 ng/ml after 0.5 hrs by LC-MS/MS analysis. Type of series: ADME, cell-free. The following applies: read-out: PPB (converted).
The nature of series [23]: Plasma protein binding in human at 2000 ng/ml after 0.5 hrs by LC-MS/MS analysis. Type of series: ADME, cell-free. Conditions: read-out: PPB (converted).
Series [24] has as its system Rattus norvegicus. Briefly: Antidiabetic activity in Wistar/ST rat plasma assessed as reduction in glucose AUC (0 to 60 mins) at 10 mg/kg, po pretreated 30 mins before glucose challenge measured for 2 hrs by oral glucose tolerance test. It is filed as functional, organism-based. Also noted: dose 10 mg/kg.
Series [25] deals with Rattus norvegicus. The experiment in a line: Inhibition of plasma DPP-4 activity in Wistar/ST rat at 10 mg/kg, po pretreated 30 mins before glucose challenge measured within 30 mins. Type of series: functional.
Series [26] concerns Rattus norvegicus. Briefly: Inhibition of plasma DPP-4 activity in orally dosed Wistar/ST rat pretreated 30 mins before glucose challenge measured for 2 hrs during oral glucose tolerance test. It is filed as functional, organism-based.
Series [27] concerns Rattus norvegicus. Briefly: Inhibition of plasma DPP-4 activity in Wistar/ST rat at 3 mg/kg, po pretreated 30 mins before glucose challenge measured for 2 hrs during oral glucose tolerance test. It is filed as functional.
The target in series [28] is Dipeptidyl peptidase 8 (Homo sapiens, UniProt Q6V1X1). Briefly: Inhibition of human recombinant DPP-8 expressed in Sf9 cells using H-Gly-Pro-AMC as substrate preincubated for 30 mins before substrate addition measured after 20 mins by fluorescence assay.
Series [29] is described as follows: Oral bioavailability in Sprague-Dawley rat at 5 mg/kg. Type of series: ADME, organism-based. The following applies: in vivo.

Active and inactive are the calls of the source. No cut-off for these calls is given here.

Chain of Dipeptidyl peptidase 8 (Q6V1X1 whole entry): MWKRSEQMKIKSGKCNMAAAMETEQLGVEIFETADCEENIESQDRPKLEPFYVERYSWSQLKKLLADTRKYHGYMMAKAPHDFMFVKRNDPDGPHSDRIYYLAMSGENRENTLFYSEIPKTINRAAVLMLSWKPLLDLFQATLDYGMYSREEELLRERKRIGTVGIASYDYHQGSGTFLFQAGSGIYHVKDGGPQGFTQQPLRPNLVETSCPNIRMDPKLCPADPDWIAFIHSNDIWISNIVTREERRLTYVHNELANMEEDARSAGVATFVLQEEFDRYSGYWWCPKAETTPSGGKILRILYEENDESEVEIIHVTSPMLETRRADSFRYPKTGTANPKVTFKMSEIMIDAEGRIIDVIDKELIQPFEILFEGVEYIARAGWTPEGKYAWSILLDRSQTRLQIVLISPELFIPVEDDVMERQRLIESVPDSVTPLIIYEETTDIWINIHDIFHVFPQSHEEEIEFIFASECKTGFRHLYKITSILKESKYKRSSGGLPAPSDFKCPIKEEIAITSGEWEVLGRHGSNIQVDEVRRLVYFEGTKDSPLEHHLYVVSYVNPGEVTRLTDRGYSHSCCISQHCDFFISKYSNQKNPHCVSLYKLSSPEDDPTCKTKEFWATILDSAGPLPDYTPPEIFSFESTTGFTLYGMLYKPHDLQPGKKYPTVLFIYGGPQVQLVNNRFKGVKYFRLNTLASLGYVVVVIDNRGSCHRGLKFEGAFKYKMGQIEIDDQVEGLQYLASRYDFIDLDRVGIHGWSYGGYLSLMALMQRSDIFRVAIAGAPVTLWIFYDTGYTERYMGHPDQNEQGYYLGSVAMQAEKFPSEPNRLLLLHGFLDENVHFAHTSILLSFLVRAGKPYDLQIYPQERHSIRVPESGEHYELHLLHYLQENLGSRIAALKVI

As for `Cc1cc2ncc(C(=O)NCC(C)(C)NCC(=O)N3CCC[C@H]3C#N)c(C)n2n1.Cl`, the Cmax amounted to 54 nM in series [1], 747 ng/mL in series [2], 68 ng/mL in series [3] and 282 ng/mL in series [11]. For the same compound, the Tmax came out at 15 min in [4], 15 min in [5] and 1 h in series [12]. In addition, the half-life in series [6] is 114 min; in [13] it was 78 min. The results for the AUC in series [7] and in [14] were 1110 ng·h/mL and 6390 ng·h/mL, respectively. The bioavailability amounted to 27% in series [8] and 98% in series [15]. In addition, the clearance is 10.3 mL/min/kg in series [9] and 37.2 mL/min/kg in [16]. The Vdss stood at 0.75 L/kg in [10] and 1.61 L/kg in [17]. Further, the results for the fraction unbound at 0.5 h, 20 ng/ml in series [18], in [20] and in series [22] were 0.779, 0.775 and 0.811, respectively. Besides, the fraction unbound at 0.5 h, 2000 ng/ml in [19] was 0.821; in [21], 0.801; in [23] it was 0.784. Further, in [24], the result was Active. Also, the inhibition in vivo at 10 mg/kg in series [25] was found to be 90%. For the same compound, the inhibition entry in series [26] is “Dose-dependent effect”. Also, in series [27], the inhibition in vivo at 3 mg/kg was 60%.

For `Cc1cc2ncc(C(=O)NCC(C)(C)NCC(=O)N3CCC[C@H]3C#N)c(C(F)(F)F)n2n1`, the IC50 in series [28] was above 100 µM.

In the case of `Cc1cc2ncc(C(=O)NCC(C)(C)NCC(=O)N3CCC[C@H]3C#N)c(O)n2n1.Cl`, the bioavailability in [29] came out at 4.1%.

In the case of `Cc1c(C(=O)NCC(C)(C)NCC(=O)N2CCC[C@H]2C#N)cnc2cc(C(C)(C)C)nn12`, the IC50 in series [28] was above 100 µM.
